From patent publication US11267800B2, “Cyclohexyl acid triazole azines as LPA antagonists” (BRISTOL-MYERS SQUIBB COMPANY, priority 2017, dated 2022)
Counter-ions that a name gives are not always drawn.

Molecular target: T1, human LPA1 (Homo sapiens, UniProt Q92633)
T1 construct: expressed in transfected cells; host or cells: Chinese hamster ovary (CHO) cells
Experiment: LPA1 functional antagonist assay (calcium flux)
Assay type: cell-based
Settings: CHO cells overexpressing human LPA1; inhibition of calcium flux induced by 10 nM LPA; read-out: hLPA1 IC50
Description: The effectiveness of compounds of the present invention as LPA1 inhibitors can be determined in an LPA1 functional antagonist assay as follows:
Chinese hamster ovary cells overexpressing human LPA1 were plated overnight (15,000 cells/well) in poly-D-lysine coated 384-well microplates (Greiner bio-one, Cat #781946) in DMEM/F12 medium (Gibco, Cat #11039). Following overnight culture, cells were loaded with calcium indicator dye (AAT Bioquest Inc, Cat #34601) for 30 minutes at 37° C. The cells were then equilibrated to room temperature for 30 minutes before the assay. Test compounds solubilized in DMSO were transferred to 384 well non-binding surface plates (Corning, Cat #3575) using the Labcyte Echo acoustic dispense and diluted with assay buffer [1×HBSS with calcium/magnesium (Gibco Cat #14025-092), 20 mM HEPES (Gibco Cat #15630-080) and 0.1% fatty acid free BSA (Sigma Cat #A9205)] to a final concentration of 0.5% DMSO. Diluted compounds were added to the cells by FDSS6000 (Hamamatsu) at final concentrations ranging from 0.08 nM to 5 μM. and were then incubated for 20 min at room temperature at which time LPA (Avanti Polar Lipids Cat #857130C) was added at final concentrations of 10 nM to stimulate the cells. The compound IC50 value was defined as the concentration of test compound which inhibited 50% of the calcium flux induced by LPA alone. IC50 values were determined by fitting data to a 4-parameter logistic equation (GraphPad Prism, San Diego Calif.).

T1 sequence (Q92633 whole entry): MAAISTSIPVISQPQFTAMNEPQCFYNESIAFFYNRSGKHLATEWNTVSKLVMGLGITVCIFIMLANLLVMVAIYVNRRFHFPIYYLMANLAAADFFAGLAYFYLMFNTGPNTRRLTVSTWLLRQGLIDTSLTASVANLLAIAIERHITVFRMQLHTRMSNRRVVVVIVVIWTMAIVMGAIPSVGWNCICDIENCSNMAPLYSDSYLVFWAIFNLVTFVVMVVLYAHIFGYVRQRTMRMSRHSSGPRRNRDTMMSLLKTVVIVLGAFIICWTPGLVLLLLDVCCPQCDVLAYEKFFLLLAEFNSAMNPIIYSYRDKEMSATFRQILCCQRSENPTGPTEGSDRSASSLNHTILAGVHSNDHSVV

IC50 [nM] | Structure (SMILES)
22 | Cc1nc(-c2nnn(C)c2CNc2nccc(C(C)(C)CF)n2)ccc1O[C@H]1CCC[C@H](C(=O)O)C1 [Example 127]
86 | COc1cc(C(C)(C)C)nc(NCc2c(-c3ccc(O[C@H]4CCC[C@H](C(=O)O)C4)c(C)n3)nnn2C)n1 [Example 169]
14 | Cc1nc(-c2nnn(C)c2CNc2nccc(Oc3ccc(F)cc3F)n2)ccc1O[C@H]1CCC[C@H](C(=O)O)C1 [Example 116]
7.2 | Cc1nc(-c2nnn(C)c2Cc2cc(-c3ccccc3)ccn2)ccc1O[C@H]1CCC[C@H](C(=O)O)C1 [Example 377]
361 | Cn1nnc(-c2cnc(O[C@H]3CCC[C@H](C(=O)O)C3)cn2)c1CNc1nccc(C(C)(C)C)n1 [Example 5, (1S,3S)-3-((5-(5-(((4-(tert-butyl)pyrimidin-2-yl)amino)methyl)-1-methyl-1H-1,2,3-triazol-4-yl)pyrazin-2-yl)oxy)cyclohexane-1-carboxylic acid]
16 | Cc1nc(-c2nnn(C)c2COc2ccnc(C(F)(F)F)n2)ccc1O[C@H]1CCC[C@H](C(=O)O)C1 [Example 341]
44 | Cc1nc(-c2nnn(C)c2CNc2nccc(COC3CC3)n2)ccc1O[C@H]1CCC[C@H](C(=O)O)C1 [Example 322]
86 | Cc1nc(-c2nnn(C)c2CNc2nccc(C(C)(C)C)n2)cnc1O[C@H]1CCC[C@H](C(=O)O)C1 [Example 136]
73 | CCc1ccnc(OCc2c(-c3ccc(O[C@H]4CCC[C@H](C(=O)O)C4)cn3)nnn2C)n1 [Example 347]
177 | Cc1nc(-c2nnn(C)c2CNc2ncc(C#N)c(C(C)(C)C)n2)ccc1O[C@H]1CCC[C@H](C(=O)O)C1 [Example 171]
17 | CCc1nc(-c2nnn(C)c2CNc2nccc(OC3CC3)n2)ccc1O[C@H]1CCC[C@H](C(=O)O)C1 [Example 390]
8.4 | Cc1nc(-c2nnn(C)c2COc2cc(-n3cccn3)ncn2)ccc1O[C@H]1CCC[C@H](C(=O)O)C1 [Example 369]
383 | Cc1nc(-c2nnn(C)c2CNc2nccc(Oc3ccc(Cl)nc3)n2)ccc1O[C@H]1CCC[C@H](C(=O)O)C1 [Example 84]
82 | CCNc1nc(NCc2c(-c3ccc(O[C@H]4CCC[C@H](C(=O)O)C4)c(C)n3)nnn2C)ncc1F [Example 58]
59 | COc1ccccc1-c1ccnc(NCc2c(-c3ccc(O[C@H]4CCC[C@H](C(=O)O)C4)cn3)nnn2C)n1 [Example 36]
53 | Cc1nc(-c2nnn(C)c2CNc2nncc(-c3ccccc3)n2)ccc1O[C@H]1CCC[C@H](C(=O)O)C1 [Example 192, (1S,3S)-3-((2-Methyl-6-(1-methyl-5-(((5-phenyl-1,2,4-triazin-3-yl)amino)methyl)-1H-1,2,3-triazol-4-yl)pyridin-3-yl)oxy)cyclohexane-1-carboxylic acid, bis TFA Salt]
40 | Cc1nc(-c2nnn(C)c2CNc2ncc(F)c(C(C)(C)C)n2)ccc1O[C@H]1CCC[C@H](C(=O)O)C1 [Example 144]
1370 | Cn1nnc(-c2ccc(O[C@H]3CCC[C@H](C(=O)O)C3)cn2)c1CNc1ccnc(OC2CC2)n1 [Example 140]
67 | COCc1cc(OCc2c(-c3ccc(O[C@H]4CCC[C@H](C(=O)O)C4)c(C)n3)nnn2C)ncn1 [Example 299]
23 | CCCc1ccnc(Nc2c(-c3ccc(O[C@H]4CCC[C@H](C(=O)O)C4)c(C)n3)nnn2C)n1 [Example 235, (1S,3S)-3-((2-methyl-6-(1-methyl-5-((4-propylpyrimidin-2-yl)amino)-1H-1,2,3-triazol-4-yl)pyridin-3-yl)oxy) cyclohexane-1-carboxylic acid]
447 | Cc1nc(-c2nnn(C)c2COc2cc(N3CCOCC3)ncn2)ccc1O[C@H]1CCC[C@H](C(=O)O)C1 [Example 356]

IC50 [nM] | Structure (SMILES)
206 | Cc1nc(-c2nnn(C)c2CNc2nccc(N3CCCC3)n2)ccc1O[C@H]1CCC[C@H](C(=O)O)C1 [Example 17]
69 | Cc1nc(-c2nnn(C)c2CNc2ncc(F)c(NCC3CC3)n2)ccc1O[C@H]1CCC[C@H](C(=O)O)C1 [Example 47]
53 | Cc1nc(-c2nnn(C)c2CNc2nccc(C(C)(C)F)n2)ccc1O[C@H]1CCC[C@H](C(=O)O)C1 [Example 132]
466 | Cc1nc(-c2nnn(C)c2COc2cc(-n3ccnc3)ncn2)ccc1O[C@H]1CCC[C@H](C(=O)O)C1 [Example 359]
25 | COCc1ccnc(OCc2c(-c3ccc(O[C@H]4CCC[C@H](C(=O)O)C4)c(C)n3)nnn2C)c1 [Example 325]
167 | Cc1nc(-c2nnn(C)c2CNc2cc(C(F)(F)F)nc(Cl)n2)ccc1O[C@H]1CCC[C@H](C(=O)O)C1 [Example 125]
16 | Cc1nc(-c2nnn(C)c2COc2cc(C(F)F)ncn2)ccc1O[C@H]1CCC[C@H](C(=O)O)C1 [Example 296]
27 | CCCOc1ccnc(NCc2c(-c3ccc(O[C@H]4CCC[C@H](C(=O)O)C4)c(C)n3)nnn2C)n1 [Example 104]
67 | Cc1nc(-c2nnn(C)c2CNc2cc(Oc3ccccc3)ccn2)ccc1O[C@H]1CCC[C@H](C(=O)O)C1 [Example 152]
102 | Cc1nc(-c2nnn(C)c2CNc2ncnc(OC3CC3)n2)ccc1O[C@H]1CCC[C@H](C(=O)O)C1 [Example 210, (1S,3S)-3-((6-(5-(((4-cyclopropoxy-1,3,5-triazin-2-yl)amino)methyl)-1-methyl-1H-1,2,3-triazol-4-yl)-2-methylpyridin-3-yl)oxy)cyclohexane-1-carboxylic acid]
208 | Cc1nc(-c2nnn(C)c2CNc2ncc(F)c(NCC(F)(F)F)n2)ccc1O[C@H]1CCC[C@H](C(=O)O)C1 [Example 41]
16 | CCSc1ccnc(NCc2c(-c3ccc(O[C@H]4CCC[C@H](C(=O)O)C4)c(C)n3)nnn2C)n1 [Example 88]
392 | Cc1nc(-c2nnn(C)c2Nc2ccnc(OCC3CC3)n2)ccc1O[C@H]1CCC[C@H](C(=O)O)C1 [Example 233, (1S,3S)-3-((6-(5-((2-(cyclopropyl-methoxy)pyrimidin-4-yl)amino)-1-methyl-1H-1,2,3-triazol-4-yl)-2-methylpyridin-3-yl)oxy)cyclohexane-1-carboxylic acid]
241 | Cc1nc(-c2nnn(C)c2CNc2nccc(Oc3cccc(C#N)c3)n2)ccc1O[C@H]1CCC[C@H](C(=O)O)C1 [Example 94]
243 | Cc1nc(-c2nnn(C)c2CNc2nccc(NCCC3CC3)n2)ccc1O[C@H]1CCC[C@H](C(=O)O)C1 [Example 50]
129 | Cc1nc(-c2nnn(C)c2COc2cc(-n3ccnn3)ncn2)ccc1O[C@H]1CCC[C@H](C(=O)O)C1 [Example 405]
233 | CCCNc1ccnc(NCc2c(-c3ccc(O[C@H]4CCC[C@H](C(=O)O)C4)c(C)n3)nnn2C)n1 [Example 51]
15 | CCCOc1ccnc(NCc2c(-c3ccc(O[C@H]4CCC[C@H](C(=O)O)C4)c(CC)n3)nnn2C)n1 [Example 392]
180 | Cc1nc(-c2nnn(C)c2CNc2nc(C#N)cc(C(C)(C)C)n2)ccc1O[C@H]1CCC[C@H](C(=O)O)C1 [Example 166]
215 | Cc1nc(-c2nnn(C)c2Nc2nccc(OC3CC3)n2)ccc1O[C@H]1CCC[C@H](C(=O)O)C1 [Example 227, (1S,3S)-3-((6-(5-((4-cyclopropoxypyrimidin-2-yl)amino)-1-methyl-1H-1,2,3-triazol-4-yl)-2-methylpyridin-3-yl)oxy)cyclohexane-1-carboxylic acid]
